The series is described as follows: gradient 5% acetonitrile 3 min, to 50% in 2 min, to 85% in 15 min, held 3 min, 100 µL/min. The following applies: column: Zorbax Extend-C18 2.1 x 50 mm; eluents: water / acetonitrile, 0.1% formic acid. An outline of the steps:
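A Zorbax Extend-C18 column (2.1 × 50 mm, 1.8 μm) run at 100 μL/min with water and acetonitrile, both containing 0.1% formic acid, separated mixtures of ~100 pure standards. The HPLC was coupled to a quadrupole time-of-flight mass spectrometer operated in positive and negative ionization mode, with dead and dwell volumes of 40 μL and 900 μL. Each retention time was taken from a computationally picked adduct peak that was then manually inspected.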
Consider `CCOC(=O)c1nc(Nc2ccccc2OCC)c2c(CC)noc2n1`, for which the RP-LC retention time turned out to be 1100 s.
The value for `COC[C@@H]1CN(Cc2ccc(OC)cc2OC)C[C@H]1c1ccncc1` was 590 s; that for `CCn1cnc(S(=O)(=O)N2CCC(C(=O)N3CCN(c4ccccn4)CC3)CC2)c1` was 556 s; that for `Cc1cc(C)c(S(=O)(=O)NC(C)Cn2cncn2)c(C)c1` (centres undefined) was 664 s.
Take `CCOC(=O)CNC(=O)N1CCC(n2c(-c3ccc(C)cc3)nc3cccnc32)C1` (centres undefined): the RP-LC retention time came to 642 s.
In the case of `COC(=O)c1c(C)oc2ccc(OCC(=O)c3ccc(F)cc3)cc12` it was 999 s.
In the case of `O=C(Nc1ccc(NC(=O)N2CCCC(C(=O)NCC3CC3)C2)cc1)NC1CCCC1` (centres undefined) it was 692 s.
As to `O=C(NCc1ccc(Cl)cc1)C1CC(=O)N(c2n[nH]c3cccc(F)c23)C1` (centres undefined), the RP-LC retention time was 833 s.
The value for `CS(=O)(=O)N(C1CCOCC1)C1CN(C(=O)c2cc3ccccc3[nH]2)C1` was 685 s; that for `CCCn1c(=O)sc2cc(S(=O)(=O)N3CCC(C(=O)Nc4ncccc4C)CC3)ccc21` was 660 s; that for `O=C(O)c1ccccc1C(=O)Nc1ccccc1[N+](=O)[O-]` was 782 s.
The value for `O=C(Cn1nc2c3ccc(Cl)cc3ncn2c1=O)Nc1ccccc1` was 727 s; that for `CC(C)S(=O)(=O)c1ccc(CC(=O)N2CC(c3nc4ccccc4[nH]3)C2)cc1` was 562 s.
In the case of `CCOCCCNC(=O)C1(C)Cn2c(ccc2-c2ccco2)C(=O)N1c1ccc(OC)cc1` (centres undefined) it was 791 s; in that of `CC(C)c1ccc(NC(=O)Cn2nc3c4sc(N(C)C)nc4ncn3c2=O)cc1`, 782 s.
For `CN(CC1(C)CCOCC1)C(=O)c1ccc2cc[nH]c2c1`, the RP-LC retention time stood at 696 s.
The value for `Cc1ccc2nc(NC3=NCN(Cc4cccnc4)CN3)nc(C)c2c1` was 587 s.
In the case of `CCn1c(=O)c2ccccc2n(Cc2nc(-c3ccccc3Cl)no2)c1=O` it was 1000 s.
The value for `Cc1nc2cc(-c3noc(COc4ccccc4C)n3)ccc2o1` was 1100 s.
For the molecule `NS(=O)(=O)c1ccc(CCNS(=O)(=O)c2ccccc2-c2nc(-c3ccccc3)no2)cc1`, the RP-LC retention time came to 886 s.
`Nc1ccc(OC(=O)Nc2ccc(O)cc2)cc1` yielded an RP-LC retention time of 608 s.
In the case of `O=C(Nc1ccccc1)Nc1ccccn1` it was 736 s.
The value for `COc1ccc(C(O)Cn2ccn3nc(-c4cccs4)cc3c2=O)cc1` (centres undefined) was 848 s; that for `COc1cccc(NC(=O)Cn2c3ccccc3n3c(=O)cc(-c4ccc(F)cc4)nc23)c1` was 961 s.
`O=C(Nc1nccs1)c1cn(Cc2ccc(F)cc2)cc2c(=O)n(-c3ccccc3)nc1-2` came in with an RP-LC retention time of 957 s.
In the case of `COc1cccc(CNC2=NCCNC23CCN(S(=O)(=O)c2ccc4c(c2)CCCC4)CC3)c1` it was 822 s; in that of `Cc1nc(-c2csc(S(=O)(=O)N3CCCC(C(=O)NCc4ccc(N(C)C)cc4)C3)c2)no1` (centres undefined), 686 s; in that of `CCOC(=O)c1c(C)[nH]c(CCC(=O)Nc2ccc(C(C)=O)cc2)c1C`, 800 s.
The value for `CCOC(=O)c1c(S(=O)(=O)N2CCC(C(=O)NC3CCCCC3)CC2)c(C)n(C)c1C` was 828 s; that for `O=C(Nc1cc(-c2ccccn2)no1)c1ccoc1` was 713 s; that for `COCCn1c(-c2cccc(OC)c2)cnc1NC(=O)Nc1cccc(Cl)c1` was 714 s.
In the case of `Cc1[nH]c(C(=O)N2CCC(CC(=O)NC3CCCCC3)CC2)c(C)c1C(=O)OC(C)C` it was 825 s; in that of `O=C(CSc1nc2ccccc2[nH]1)Nc1nc2ccccc2s1`, 577 s; in that of `O=C(Cn1cccc1-c1nnc(-c2ccccc2)o1)N1CCN(c2ccccc2)CC1`, 984 s.
Turning to `Cc1ccc2[nH]c(C(=O)NCC3CCCO3)cc2c1` (centres undefined), the RP-LC retention time was determined as 776 s.
The value for `O=C1c2ccccc2C(=O)c2[nH]cnc21` was 661 s; that for `O=S(=O)(Nc1ccc(Cn2cncn2)cc1)c1cccc(Cl)c1` was 716 s; that for `Cc1ccc(CN2C(=O)NC3(CCCN(C(=O)c4ccc5c(c4)OCO5)C3)C2=O)cc1` (centres undefined) was 819 s.
`COCCn1cc2c3c(cccc31)CN(C(=O)Nc1ccc(C)c(C)c1)CC2` displayed an RP-LC retention time of 1020 s.
In the case of `O=C(COc1ccccc1)N1CCN(c2nc(CN3CCCCC3)cs2)CC1` it was 636 s.
As to `O=C(Cc1ccc(Br)cc1)NCC(=O)N1CCCc2ccccc21`, the RP-LC retention time is 876 s.
Molecule `COc1cccc(CNC(=O)CCc2nnc3c4cc(-c5ccccc5)nn4ccn23)c1` yielded an RP-LC retention time of 752 s.
Molecule `CCOC(=O)c1c(C)n(Cc2ccco2)c2ccc(O)cc12` yielded an RP-LC retention time of 854 s.
The value for `Cc1cc(C)n(-c2ccc(C(=O)NCCCN3CCCC3=O)nn2)n1` was 637 s; that for `CCc1nn2c(CNC(=O)c3cccs3)c(-c3ccccc3)nc2s1` was 866 s.
On to `CC(C)n1ccc(-c2nnc(NC(=O)COc3ccc(Cl)cc3Cl)o2)n1`, for which the RP-LC retention time turned out to be 793 s.
Regarding `CC(=O)c1ccc(NC(=O)Cn2ccc3ccc(-c4nnc(C)o4)cc32)cc1`, the RP-LC retention time was determined as 743 s.
In the case of `Cc1nc2cccnc2n1CC1CCCN(S(=O)(=O)c2ccc(C(C)C)cc2)C1` (centres undefined) it was 817 s; in that of `CCC(C)NC(=O)N1CC(n2cc(C(=O)NCC3CC3)nn2)C1` (centres undefined), 662 s; in that of `Cc1ccc(CNC(=O)c2cnc(-c3ccc(C)cc3)nc2-c2ccncc2)cc1`, 923 s.
In the case of `CCc1ccc(Oc2cc(N3CCC(C(=O)NCCCOC(C)C)CC3)ncn2)cc1` it was 903 s.
For the molecule `COc1ccc2[nH]c3c(c2c1)CCN1C(=O)N(c2ccc(Cl)c(Cl)c2)C(=O)C31C` (centres undefined), the RP-LC retention time was determined as 1120 s.
Take `Cc1ccc(CN2CC3(CCCCC3)CC2COc2ccncc2)nc1` (centres undefined): the RP-LC retention time was found to be 615 s.
The value for `CN(C)C(=O)CN1CCN(c2cc(C(=O)O)c3cc(NC(=O)c4ccc(F)cc4)ccc3n2)CC1` was 579 s; that for `O=C(c1cc(S(=O)(=O)N2CCCC(C(=O)N3CCOCC3)C2)c[nH]1)N1CCCCCC1` (centres undefined) was 696 s; that for `CC(NC(=O)CC1CCN(S(=O)(=O)c2ccccc2)CC1)c1ccc2c(c1)OCCO2` (centres undefined) was 846 s.
The value for `Cc1ccc(C(C)NC(=O)C2CCCN(c3nc4c(s3)c(C)nn4-c3ccc(F)cc3)C2)cc1` (centres undefined) was 1230 s; that for `Cc1sc(NC(=O)c2ccc(Br)cc2)nc1-c1ccc2c(c1)NC(=O)C(C)O2` (centres undefined) was 1040 s.
`Cc1ccn2cc(-c3ccc(NS(=O)(=O)c4cccc(Cl)c4)cc3)nc2n1`: the RP-LC retention time came to 679 s.

The values above are taken from the METLIN SMRT retention time set (Domingo-Almenara et al. 2019).
